Laboratory results taken from patent US12172975B2, “1H-indazole carboxamides as receptor-interacting protein kinase 1 inhibitors (RIPK1)” (BRISTOL-MYERS SQUIBB COMPANY, priority 2018, dated 2024).
Like-named read-outs stand apart in the source and are kept apart here.

What was measured:
[1] = tested on: MLKL phosphorylation in HT29-L23 human colorectal adenocarcinoma cells; test: MLKL Phosphorylation High-Content Assay; format: cell-based; details: 6 h, necroptosis induced with TNFα, SMAC mimetic and Z-VAD, read-out: pMLKL (IC50)
How it was run: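 Following fixation and staining for phospho-S358 MLKL with Hoechst nuclear counterstain, high-content imaging quantified phosphorylation in HT29-L23 cells challenged 6 h with TNFα 35 ng/mL, SMAC mimetic 700 nM and Z-VAD 140 nM. Nec-1s at 6.25 μM defined full inhibition; 4-parameter logistic fits yielded IC50 and Ymax.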

[2] = target: T1, His-GST-TVMV-hRIPK1 (1-324) (Homo sapiens (Human), UniProt Q13546); test: biochemical
Experimental: (§1) A solution was prepared containing 0.2 nM Anti GST-Tb (Cisbio, 61GSTTLB), 90.6 nM probe and 1 nM His-GST-TVMV-hRIPK1 (1-324) in FRET Buffer (20 mM HEPES, 10 mM MgCl2, 0.015% Brij-35, 4 mM DTT, 0.05 mg/mL BSA). Using Formulatrix Tempest, the detection antibody/enzyme/probe solution (2 mL) was dispensed into wells of a 1536 plate (Black Low Binding Polystyrene 1536 Plate (Corning, 3724)) containing 10 nL of compounds of interest at appropriate concentration in DMSO. The plate was incubated at rt for 1 h. FRET was measured using the EnVision plate reader (Excitation: 340 nm, Emission: 520 nm/495 nM). Total signal (0% inhibition) was calculated from wells containing 10 nL DMSO only.

[3] = target: T1, His-GST-TVMV-hRIPK1 (1-324); test: RIPK1 HTRF Binding Assay; details: read-out: RIPK1 HTRF (IC50); FRET probe displacement, 1 h at rt
Experimental: as §1

T1 sequence (Q13546 1-324): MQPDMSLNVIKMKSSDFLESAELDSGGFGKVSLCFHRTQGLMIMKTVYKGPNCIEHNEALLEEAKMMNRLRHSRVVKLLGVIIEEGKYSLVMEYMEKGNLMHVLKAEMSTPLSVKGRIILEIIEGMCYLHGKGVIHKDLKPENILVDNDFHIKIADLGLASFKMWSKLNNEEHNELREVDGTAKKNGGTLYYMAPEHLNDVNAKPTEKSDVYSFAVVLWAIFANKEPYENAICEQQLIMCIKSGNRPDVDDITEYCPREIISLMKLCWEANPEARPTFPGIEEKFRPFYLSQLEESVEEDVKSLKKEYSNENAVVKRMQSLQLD

Row | Molecule | IC50 ([1]; Homo sapiens) | IC50 [2] | IC50 [1] | IC50 [3]
1 | [2H]C([2H])([2H])Oc1ncc(-c2ccc3c(C(=O)NC(C)C)n[nH]c3c2)cc1C(=O)NC(C)c1ccccc1OC(F)(F)F (racemic) [Example 22, (rac)-N-isopropyl-6-(6-methoxyd3-5-((1-(2-(trifluoromethoxy)phenyl)ethyl)carbamoyl)pyridin-3-yl)-1H-indazole-3-carboxamide] | 440 nM | 100 nM |  | 
2 | CNC(=O)c1n[nH]c2cc(-c3cnc(OC)c(C(=O)NC(C)c4ccccc4OC(F)(F)F)c3)cc(F)c12 (racemic) [Example 24, 4-fluoro-6-[6-methoxy-5-({1-[2-(trifluoromethoxy)phenyl]ethyl}carbamoyl)pyridin-3-yl]-N-methyl-1H-indazole-3-carboxamide] | 11 nM | 5.4 nM |  | 
3 | CCC(c1ccccc1)n1nnc(-c2cc(-c3ccc4c(C(=O)NC)n[nH]c4c3)cnc2OC)n1 (single isomer, unassigned) [Example 18-1, 6-(6-methoxy-5-(2-(l-phenylpropyl)-2H-tetrazol-5-yl)pyridin-3-yl)-N-methyl-1H-indazole-3-carboxamide] |  | 5.5 nM | 7.3 nM | 
4 | CCC(c1ccccc1)n1nnc(-c2cc(-c3ccc4c(C(=O)NC)n[nH]c4c3)cnc2OC)n1 (single isomer, unassigned) [Example 18-2, 6-(6-methoxy-5-(2-(l-phenylpropyl)-2H-tetrazol-5-yl)pyridin-3-yl)-N-methyl-1H-indazole-3-carboxamide] |  | 100 nM | 310 nM | 
5 | [2H]C([2H])([2H])NC(=O)c1n[nH]c2cc(-c3cnc(OC)c(-c4nnn(C(C)c5ccc(F)cc5)n4)c3)ccc12 (single isomer, unassigned) [Example 19-1, 6-(5-(2-(1-(4-fluorophenyl)ethyl)-2H-tetrazol-5-yl)-6-methoxypyridin-3-yl)-N-(methyl-d3)-1H-indazole-3-carboxamide] |  | 42 nM | 14 nM | 
6 | [2H]C([2H])([2H])NC(=O)c1n[nH]c2cc(-c3cnc(OC)c(-c4nnn(C(C)c5ccc(F)cc5)n4)c3)ccc12 (single isomer, unassigned) [Example 19-2, 6-(5-(2-(1-(4-fluorophenyl)ethyl)-2H-tetrazol-5-yl)-6-methoxypyridin-3-yl)-N-(methyl-d3)-1H-indazole-3-carboxamide] |  | 100 nM | 64 nM | 
7 | CNC(=O)c1n[nH]c2cc(-c3cnc(OC)c(C(=O)NC4CCCC(c5ccccc5)C4)c3)ccc12 (single isomer, unassigned) [Example 21-1, 6-{6-methoxy-5-[(3-phenylcyclohexyl)carbamoyl]pyridin-3-yl}-N-methyl-1H-indazole-3-carboxamide] |  | 3.5 nM | 8.3 nM | 
8 | CNC(=O)c1n[nH]c2cc(-c3cnc(OC)c(C(=O)NC4CCCC(c5ccccc5)C4)c3)ccc12 (single isomer, unassigned) [Example 21-2, 6-{6-methoxy-5-[(3-phenylcyclohexyl)carbamoyl]pyridin-3-yl}-N-methyl-1H-indazole-3-carboxamide] |  | 5.9 nM | 13 nM | 
9 | CNC(=O)c1n[nH]c2cc(-c3cnc(OC)c(C(=O)NC4CCCC(c5ccccc5)C4)c3)ccc12 (single isomer, unassigned) [Example 21-3, 6-{6-methoxy-5-[(3-phenylcyclohexyl)carbamoyl]pyridin-3-yl}-N-methyl-1H-indazole-3-carboxamide] |  | 22 nM | 8.1 nM | 
10 | CCNC(=O)c1n[nH]c2cc(-c3cnc(OC)c(C(=O)N[C@@H](C)c4cc(C(F)(F)F)ccc4F)c3)ccc12 [Example 236, N-[(1,1,2,2,2-deutero)ethyl]-6-(5-{[(1S)-1-[2-fluoro-5-(trifluorometh-yl)phenyl](2,2,2-deutero)ethyl]-carbamoyl}-6-(deutero)methoxy-pyridin-3-yl)-1H-indazole-3-carbox-amide] |  |  | 40 nM | 37 nM
11 | N-[(1,1,2,2,2-deutero)ethyl]-6-(5- {[(1R)-1-[2-fluoro-5-(trifluoro- methoxy)phenyl]ethyl]carbamoyl}- 6-(deutero)methoxypyridin-3-yl)- 1H-indazole-3-carboxamide [Example 225] |  |  | 91 nM | 43 nM
